# Results: patent US12617773B2, “Azetidin-3-ylmethanol derivatives as CCR6 receptor modulators” (Idorsia Pharmaceuticals Ltd, priority 2020, dated 2026)
# pIC50: −log10 of the molar value.
# Target: T1, human CCR6 (Homo sapiens, UniProt P51684)
# T1 construct: expressed in transfected cells; host or cells: HEK-293
# T1 sequence (P51684 1-374): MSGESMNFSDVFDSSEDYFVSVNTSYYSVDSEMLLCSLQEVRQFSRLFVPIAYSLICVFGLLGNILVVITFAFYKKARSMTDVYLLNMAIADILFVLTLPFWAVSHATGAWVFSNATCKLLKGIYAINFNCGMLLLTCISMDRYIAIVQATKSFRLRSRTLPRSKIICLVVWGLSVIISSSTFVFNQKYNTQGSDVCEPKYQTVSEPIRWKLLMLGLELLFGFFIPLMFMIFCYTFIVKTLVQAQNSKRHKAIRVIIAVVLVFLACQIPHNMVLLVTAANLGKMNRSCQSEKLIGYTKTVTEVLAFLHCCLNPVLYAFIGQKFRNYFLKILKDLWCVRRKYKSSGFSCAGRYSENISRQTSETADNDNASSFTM
# Experiment: FLIPR assay (inhibition of CCL20-induced calcium signal)
# Format: cell-based
# Details: HEK-293 cells expressing human CCR6; mean values where determined several times; read-out: FLIPR IC50
# How it was run: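 Dye-loaded HEK-293 cells expressing human CCR6 were preincubated with compound for 30 min at room temperature in the dark, then challenged with 10 nM CCL20 (final). Fluorescence was tracked on FLIPR, and baseline-subtracted peak emission over base after agonist addition gave inhibition dose-response curves for IC50.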
row,pIC50,SMILES
1,6.56,CCc1ccc([C@](O)(c2cncc(N3C[C@@H]4C[C@H]3CO4)c2)C2(C)CN(C)C2)cc1 [Example 244]
2,7.59,"CC(C)c1ccc([C@](O)(c2cncc(OCc3ccccc3)c2)C2(C)CN(C)C2)cc1 [Example 245, (R)-(5-Benzyloxy-pyridin-3-yl)-(1,3-dimethyl-azetidin-3-yl)-(4-isopropyl-phenyl)-methanol]"
3,7.48,"CC(C)c1ccc(C(O)(c2cncc(OCCc3ccccn3)c2)C2(C)CN(C)C2)cc1 (stereo not shown) [Example 246, (1,3-Dimethyl-azetidin-3-yl)-(4-isopropyl-phenyl)-[5-(2-pyridin-2-yl-ethoxy)-pyridin-3-yl]-methanol]"
4,6.60,COCCOc1cncc(C(O)(c2ccc(C(C)C)cc2)C2(C)CN(C)C2)c1 (stereo not shown) [Example 247]
5,6.61,CC(C)c1ccc(C(O)(c2cncc(OCC3COC3)c2)C2(C)CN(C)C2)cc1 (stereo not shown) [Example 248]
6,7.11,CC(C)c1ccc([C@](O)(c2cncc(OCCCO)c2)C2(C)CN(C)C2)cc1 [Example 249]
7,7.96,CC(C)Oc1cncc([C@@](O)(c2ccc(C(C)C)cc2)C2(C)CN(C)C2)c1 [Example 250]
8,8.08,CC(C)c1ccc([C@](O)(c2cncc(OC3CCCCC3)c2)C2(C)CN(C)C2)cc1 [Example 251]
9,6.62,CC(C)c1ccc([C@](O)(c2cncc(OCC(C)(C)O)c2)C2(C)CN(C)C2)cc1 [Example 252]
10,7.88,COC1CCC(Oc2cncc([C@@](O)(c3ccc(C(C)C)cc3)C3(C)CN(C)C3)c2)C1 (stereo partly shown) [Example 253]
11,7.71,CC(C)c1ccc([C@](O)(c2cncc(OCc3nc(C4CC4)no3)c2)C2(C)CN(C)C2)cc1 [Example 254]
12,6.11,Cc1nc(C)n(CCOc2cncc([C@@](O)(c3ccc(C(C)C)cc3)C3(C)CN(C)C3)c2)n1 [Example 255]
13,7.24,CC(C)c1ccc([C@](O)(c2cncc(OCCC(C)(C)O)c2)C2(C)CN(C)C2)cc1 [Example 256]
14,7.06,COc1cncc([C@@](O)(c2ccc(C(C)C)cc2)C2(C)CN(C)C2)c1 [Example 257]
15,7.81,CC(C)c1ccc([C@](O)(c2cncc(OCCOCc3ccccc3)c2)C2(C)CN(C)C2)cc1 [Example 258]
16,7.25,CC(C)c1ccc([C@](O)(c2cncc(OC3CCOCC3)c2)C2(C)CN(C)C2)cc1 [Example 259]
17,6.49,"CC(C)c1ccc([C@](O)(c2cncc(OCCO)c2)C2(C)CN(C)C2)cc1 [Example 260, 2-{5-[(R)-(1,3-Dimethyl-azetidin-3-yl)-hydroxy-(4-isopropyl-phenyl)-methyl]-pyridin-3-yloxy}-ethanol]"
18,6.69,"CC(C)c1ccc([C@](O)(c2cncc(OC3CCC(O)CC3)c2)C2(C)CN(C)C2)cc1 (stereo partly drawn) [Example 261, 4-{5-[(R)-(1,3-Dimethyl-azetidin-3-yl)-hydroxy-(4-isopropyl-phenyl)-methyl]-pyridin-3-yloxy}-cyclohexanol]"
19,7.14,"CC(C)c1ccc([C@](O)(c2cncc(OC3CCC(C)(O)CC3)c2)C2(C)CN(C)C2)cc1 (stereo partly drawn) [Example 262, 4-{5-[(R)-(1,3-Dimethyl-azetidin-3-yl)-hydroxy-(4-isopropyl-phenyl)-methyl]-pyridin-3-yloxy}-1-methyl-cyclohexanol]"
20,6.79,CN1CC(C)(C(O)(c2ccc(OC(F)(F)F)cc2)c2cnc(Oc3ccccc3)nc2)C1 (stereo not shown) [Example 263]
21,6.78,CN1CC(C)(C(O)(c2ccc(OC(F)(F)F)cc2)c2ccc(OCc3ccccc3)nc2)C1 (stereo not shown) [Example 264]
22,7.04,CN1CC(C)(C(O)(c2ccc(OC(F)(F)F)cc2)c2cncc(-n3cccn3)c2)C1 (stereo not shown) [Example 265]
23,7.10,"CN1CC(C)(C(O)(c2ccc(OC(F)(F)F)cc2)c2cnc(F)c(N3CCCC3)c2)C1 (stereo not shown) [Example 266, (1,3-Dimethyl-azetidin-3-yl)-(6-fluoro-5-pyrrolidin-1-yl-pyridin-3-yl)-(4-trifluoromethoxy-phenyl)-methanol]"
24,6.99,"CN1CC(C)(C(O)(c2ccc(OC(F)(F)F)cc2)c2cnc(C#N)c(N3CCCC3)c2)C1 (stereo not shown) [Example 267, 5-[(1,3-Dimethyl-azetidin-3-yl)-hydroxy-(4-trifluoromethoxy-phenyl)-methyl]-3-pyrrolidin-1-yl-pyridine-2-carbonitrile]"
25,7.00,"CN1CC(C)(C(O)(c2ccc(OC(F)(F)F)cc2)c2ccc(OC3CCOCC3)nc2)C1 (stereo not shown) [Example 268, (1,3-Dimethyl-azetidin-3-yl)-[6-(tetrahydro-pyran-4-yloxy)-pyridin-3-yl]-(4-trifluoromethoxy-phenyl)-methanol]"

row,pIC50,SMILES
1,6.65,"CN1CC(C)(C(O)(c2ccc(OC(F)(F)F)cc2)c2ccc(OCC3COC3)nc2)C1 (stereo not shown) [Example 269, (1,3-Dimethyl-azetidin-3-yl)-[6-(oxetan-3-ylmethoxy)-pyridin-3-yl]-(4-trifluoromethoxy-phenyl)-methanol]"
2,7.56,"Cc1csc(-c2cncc(C(O)(c3ccc(C(C)C)cc3)C3(C)CN(C)C3)c2)n1 (stereo not shown) [Example 270, (1,3-Dimethyl-azetidin-3-yl)-(4-isopropyl-phenyl)-[5-(4-methyl-thiazol-2-yl)-pyridin-3-yl]-methanol]"
3,7.44,"Cc1cnc(-c2cncc(C(O)(c3ccc(C(C)C)cc3)C3(C)CN(C)C3)c2)s1 (stereo not shown) [Example 271, (1,3-Dimethyl-azetidin-3-yl)-(4-isopropyl-phenyl)-[5-(5-methyl-thiazol-2-yl)-pyridin-3-yl]-methanol]"
4,6.31,"COc1ncc(C(O)(c2ccc(C(C)C)cc2)C2(C)CN(C)C2)cn1 (stereo not shown) [Example 272, (1,3-Dimethyl-azetidin-3-yl)-(4-isopropyl-phenyl)-(2-methoxy-pyrimidin-5-yl)-methanol]"
5,7.49,"CC(C)c1ccc([C@](O)(c2ccnc(N3CCCC3)c2)C2(C)CN(C)C2)cc1 [Example 273, (S)-(1,3-Dimethyl-azetidin-3-yl)-(4-isopropyl-phenyl)-(2-pyrrolidin-1-yl-pyridin-4-yl)-methanol]"
6,6.60,CC(C)c1ccc(C(O)(c2ccnc(N3CCC[C@@H]3CO)c2)C2(C)CN(C)C2)cc1 (stereo partly shown) [Example 274]
7,7.17,CC(C)c1ccc(C(O)(c2ccnc(N3CCCCC3)c2)C2(C)CN(C)C2)cc1 (stereo not shown) [Example 275]
8,6.38,CC(C)c1ccc(C(O)(c2ccnc(N3CCOCC3)c2)C2(C)CN(C)C2)cc1 (stereo not shown) [Example 276]
9,7.37,"CC(C)c1ccc([C@](O)(c2ccnc(OCC3CCOCC3)c2)C2(C)CN(C)C2)cc1 [Example 277, (S)-(1,3-Dimethyl-azetidin-3-yl)-(4-isopropyl-phenyl)-[2-(tetrahydro-pyran-4-ylmethoxy)-pyridin-4-yl]-methanol]"
10,7.31,"COCCOc1cc([C@@](O)(c2ccc(C(C)C)cc2)C2(C)CN(C)C2)ccn1 [Example 278, (S)-(1,3-Dimethyl-azetidin-3-yl)-(4-isopropyl-phenyl)-[2-(2-methoxy-ethoxy)-pyridin-4-yl]-methanol]"
11,6.78,"CCc1cc([C@@](O)(c2ccc(C(C)C)cc2)C2(C)CN(C)C2)ccn1 [Example 279, (S)-(1,3-Dimethyl-azetidin-3-yl)-(2-ethyl-pyridin-4-yl)-(4-isopropyl-phenyl)-methanol]"
12,7.43,"CC(C)c1ccc([C@](O)(c2ccnc(C3CCCC3)c2)C2(C)CN(C)C2)cc1 [Example 280, (S)-(2-Cyclopentyl-pyridin-4-yl)-(1,3-dimethyl-azetidin-3-yl)-(4-isopropyl-phenyl)-methanol]"
13,7.09,"CN1CC(C)([C@](O)(c2ccc(C(F)(F)F)cc2)c2cncc(N3CCCC3)c2)C1 [Example 281, (R)-(1,3-Dimethyl-azetidin-3-yl)-(5-pyrrolidin-1-yl-pyridin-3-yl)-(4-trifluoromethyl-phenyl)-methanol]"
14,7.35,CC(C)c1ccc([C@](O)(c2cncc(N3CC[C@@](C)(CO)C3)c2)C2(C)CN(C)C2)cc1 [Example 282]
15,7.21,CC(C)c1ccc([C@](O)(c2cncc(N3CC[C@H](F)C3)c2)C2(C)CN(C)C2)cc1 [Example 283]
16,6.65,"CC(C)c1ccc([C@](O)(c2cncc(-n3cc(C4CCOCC4)nn3)c2)C2(C)CN(C)C2)cc1 [Example 284, (R)-(1,3-Dimethyl-azetidin-3-yl)-(4-isopropyl-phenyl)-{5-[4-(tetrahydro-pyran-4-yl)-[1,2,3]triazol-1-yl}-pyridin-3-yl]-methanol]"
17,7.11,Cc1cncc(C(O)(c2ccc(C(C)C)cc2)C2(C)CN(C)C2)c1 (stereo not shown) [Example 285]
18,7.44,C=C(C)c1cncc(C(O)(c2ccc(C(C)C)cc2)C2(C)CN(C)C2)c1 (stereo not shown) [Example 286]
19,7.37,CC(C)c1ccc(C(O)(c2cncc(C3CC3)c2)C2(C)CN(C)C2)cc1 (stereo not shown) [Example 287]
20,7.47,CC(C)c1ccc(C(O)(c2cncc(C3=CCCC3)c2)C2(C)CN(C)C2)cc1 (stereo not shown) [Example 288]
21,7.08,"CC(C)c1ccc(C(O)(c2cncc(C3=CC(O)CC3)c2)C2(C)CN(C)C2)cc1 (stereo not shown) [Example 289, 3-{5-[(1,3-Dimethyl-azetidin-3-yl)-hydroxy-(4-isopropyl-phenyl)-methyl]-pyridin-3-yl}-cyclopent-2-enol]"
22,7.00,CC(C)c1ccc(C(O)(c2cncc(C(C)C)c2)C2(C)CN(C)C2)cc1 (stereo not shown) [Example 290]
23,7.61,CC(C)c1ccc(C(O)(c2cncc(C3CCCC3)c2)C2(C)CN(C)C2)cc1 (stereo not shown) [Example 291]
24,6.13,CC(C)c1ccc(C(O)(c2cncc(C3CCC(O)C3)c2)C2(C)CN(C)C2)cc1 (stereo not shown) [Example 292]
